Source: ChEMBL document CHEMBL1817544, “Carbonic anhydrase inhibitors. Synthesis, molecular structures, and inhibition of the human cytosolic isozymes I and II and transmembrane isozymes IX, XII (cancer-associated) and XIV with novel 3-pyridinesulfonamide derivatives” (Eur J Med Chem, 2011)

Legend:
[1] = target: Carbonic anhydrase 9 (Homo sapiens, UniProt Q16790)
[2] = target: Carbonic anhydrase 1 (Homo sapiens, UniProt P00915)
Chain of Carbonic anhydrase 1 (P00915 whole entry): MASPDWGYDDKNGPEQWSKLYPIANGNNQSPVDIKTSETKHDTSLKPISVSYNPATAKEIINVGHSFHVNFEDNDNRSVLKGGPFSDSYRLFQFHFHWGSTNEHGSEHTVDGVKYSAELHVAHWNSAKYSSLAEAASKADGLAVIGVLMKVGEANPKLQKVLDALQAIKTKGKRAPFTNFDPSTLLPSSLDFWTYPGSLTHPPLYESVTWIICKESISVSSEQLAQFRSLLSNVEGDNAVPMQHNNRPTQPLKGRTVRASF

SMILES	Ki [1] [nM]	Ki [2] [nM]
COC1=C(S(N)(=O)=O)C2NS(=O)(=O)c3cnccc3N2C=C1 (centres undefined)	13.5	
Cc1cccc[n+]1-c1ccncc1S(N)(=O)=O	7.4	
COC1=CC=CC2N1c1ccncc1S(=O)(=O)N2c1ccncc1S(N)(=O)=O (centres undefined)	8.7	
NS(=O)(=O)c1cnccc1-n1ccccc1=O	10.2	
NS(=O)(=O)c1cnccc1Oc1ccncc1S(N)(=O)=O	9	251000

Results, then the molecule that gave them:

Ki [1] [nM]	Ki [2] [nM]	SMILES
7.6		NS(=O)(=O)c1cnccc1-[n+]1ccccc1
10.1		Cc1cc[n+](-c2ccncc2S(N)(=O)=O)cc1
9		CN(C)c1cc[n+](-c2ccncc2S(N)(=O)=O)cc1
